In patent US20230172925A1, “SKIN-CARE COMPOSITIONS AND USES THEREOF” (AHAVA - DEAD SEA LABORATORIES LTD., priority 2019, published 2023):

Experiments:
Assay type in all cases: cell-based
TNFα = assay: Human skin organ culture with UVB stressor, TNFα secretion in the medium; details: UVB 200 mJ/cm2; irradiated sample = 100% (53±30 pg/ml); complex, DSE 3.0%, β-Caroten 15.6 ppm
Protocol: (§1) Topical exposure till 48 hours in total (24 hr recovery following topical application+24 hr after exposure to UVB irradiation) with UVB radiation as stressor on human skin model
(§2) The following general procedure was used in the study:
(§3) Day 1: Topical application of 3 μl of each sample solution on the epidermis of each skin explant. Incubate for 24 hours. SDS 10% was applied only once, and was not farther irradiated with UVB.
(§4) Day 2: Skin explants were washed once with PBS and irradiated with UVB lamp at 200 mJ/cm2. After radiation it was incubated for 30 min and then topically apply each treatment (sample solution) again. Control was not irradiated under UVB light. UVB radiated control was without any treatment except radiation.
(§5) Day 3: Viability and Caspase3 activity were measured for the epidermis layer. The medium was collected for cytokines test.
FIG. 4 illustrates the TNFα secretion results in the medium as observed with 2 to 4 repetition of the tests. In FIG. 4 the TNFα secretion of the irradiated sample “UVB” was selected as 100% and it equals 53±30 pg/ml.

IL-1α = assay: Human skin organ culture with UVB stressor, IL-1α secretion in the medium; details: UVB; OSM 0.5%, β-Caroten 15.6 ppm
Protocol: as §1, §2, §3, §4, §5
FIG. 5 illustrates the IL-1α secretion results in the medium as observed with 3 to 4 repetition of the tests. In FIG. 5 the IL-1α secretion of the irradiated sample “UVB” was selected as 100% and it equals 8.1±1.0 pg/ml.

[1] = tested on: MatTek EFT-400 full thickness tissues; assay: DNA microarray gene expression in skin equivalents, complex vs individual ingredients (Example 5); set-up: key to Genes up and downregulation in pathway: + = up-regulated; − = down-regulated; *non-significant down-regulation, thus, regulation is considered as non-affected (NA); details: for Up-Regulated Genes (number): cut off of two fold change of adjusted Fold Change, 48 hours
Protocol: MatTek EFT-400 full thickness tissues were used as the model for this study. Upon arrival, the full thickness tissues were placed into 6 wells plates with 2 ml of culture media and incubated overnight at 37±2° C. and 5±1% CO2. After this overnight incubation the culture media was replaced with 5 ml of fresh media and the tissues were treated topically with the test materials prepared in distilled water as follows:
After the application of the test materials the tissues were incubated at 37±2° C. and […] for 48 hours.
At the end of the treatment period, the tissues were rinsed and transferred to a 2 ml centrifuge tube containing 700 μl of lysis buffer and homogenized. After centrifuging at 14,000×g for 10 minutes at 4° C. the supernatant from each tube was transferred to a new 1.5 ml tube and mixed with and equal volume of 64% ethanol. After mixing the solutions was transferred to glass fiber filter cartridges and the cartridges were loaded into a 1.5 ml collection tube centrifuged for 1 minute at 14,000 RPM in a Napco 2002 Microcentrifuge with a DA-6T fixed angle rotor. The flow through was discarded and any remaining mixture was loaded into the filter cartridge and the centrifugation process was repeated until all of the mixture had been processed. The filter was then washed to remove any residual cellular debris from the RNA bound to the glass fibers by subsequently applying 700 μl of wash solution 1 (1 time) and 500 μl of wash solution 2 (2 times) to the filter cartridge and centrifuging at 14,000 RPM for 1 minute to pass each wash through the cartridge. After each wash, the flow through was discarded. After the final wash one final spin was performed without wash solution to remove any residual wash solution in the filter cartridge. The RNA bound to the glass fibers within the cartridge was then eluted by applying 40 μl of TE buffer (10 mM Tris-HCl, 1 mM EDTA, preheated to 70-80° C.) to the cartridge and centrifuging the cartridge in a new collection tube at 14,000 RPM for one minute. The elution process was then repeated a second time using 20 μl of TE buffer.
First Strand cDNA Synthesis: To start the first strand synthesis, 10 μl of total RNA for each sample was added to a 600 μl PCR tube and the total volume of liquid in the tube will be adjusted to 11 μl with DEPC H2O. Next, 1 μl of T7 Oligo(dT) primer was added and the tube was incubated in a water bath at 70±2° C. for 10 minutes to denature the RNA and then placed on ice to allow the primers to anneal to the poly A ends of the mRNA. After cooling 2 μl of 10× first strand buffer, 1 μl of RNAse inhibitor and 4 μl of dNTP mix were added to each tube, and the tube was incubated at 42° C. in a hybridization oven (Labnet Problot). As soon as the tube was heated, 1 μl of Reverse Transcriptase was added and the tubes were returned to 42±2° C. for 2 hours. At the end of the two hours the tubes were briefly centrifuged to collect all of the fluid at the bottom of the tube and then placed on ice.
Two tubes were prepared for the labeling process, one for Cy3 labeling (green) and one for Cy5 labeling (red). To the Cy3 tube 2 μg of aRNA prepared from the untreated/control sample (the actual color assignment for each sample is not important, but for consistency Cy3 is normally used for the untreated sample) and enough DEPC H2O was added to bring the total volume up to 4 μl. To the Cy5 tube 2 μg of aRNA prepared from the sample treated with the test material and enough DEPC H2O was added to bring the total volume up to 4 μl. To both tubes 5 μl of ASAP labeling buffer was added along with 1 μl of the specific dye for the tube (Cy3 or Cy5). The tubes were incubated for 15 minutes at 85±2° C. At the end of the 15 minutes the tubes were placed on ice to cool them and then add 2.5 μl of ASAP stop solution was added to each tube.

[2] = KEGG_NUCLEOTIDE_EXCISION_REPAIR
[3] = KEGG_SIGNALING_PATHWAYS_REGULATING_PLURIPOTENCY_OF_STEM_CELLS
[4] = WIKI_ASSEMBLY_OF_COLLAGEN_FIBRILS_AND_OTHER_MULTIMERIC_STRUCTURES

CC1=C(/C=C/C(C)=C/C=C/C(C)=C/C=C/C=C(C)/C=C/C=C(C)/C=C/C2=C(C)CCCC2(C)C)C(C)(C)CCC1 [β-Caroten, β-carotene]
TNFα concentration as % of the irradiated skin explant (TNFα): 70% | increase in IL-1α secretion compared to the control (IL-1α): 20% | z-score ([1]; KEGG_APOPTOSIS): −0.5665 | z-score ([1]; KEGG_BASE_EXCISION_REPAIR): −1.4296 | Genes up and downregulation in pathway ([1]; KEGG_CELL_CYCLE): − | z-score ([1]; KEGG_CELL_CYCLE): −2.4656 | z-score ([1]; KEGG_CIRCADIAN_RHYTHM_MAMMAL): −1.209 | z-score ([1]; KEGG_FATTY_ACID_BIOSYNTHESIS): −0.6185 | z-score ([1]; KEGG_FATTY_ACID_DEGRADATION): −1.0292 | z-score ([1]; KEGG_GLYCOLYSIS_GLUCONEOGENESIS): −1.0754 | z-score ([1]; KEGG_NF_KAPPA_B_SIGNALING_PATHWAY): 3.1522 | Genes up and downregulation in pathway [1, 2]: − | z-score [1, 2]: −1.5901 | z-score ([1]; KEGG_OXIDATIVE_PHOSPHORYLATION): 3.5721 | Genes up and downregulation in pathway ([1]; KEGG_P53_SIGNALING_PATHWAY): − | z-score ([1]; KEGG_P53_SIGNALING_PATHWAY): −1.6942 | z-score ([1]; KEGG_PROTEASOME): 1.1865 | z-score ([1]; KEGG_RETINOL_METABOLISM): −0.6377 | Genes up and downregulation in pathway [1, 3]: − | z-score [1, 3]: −2.818 | z-score ([1]; KEGG_SPHINGOLIPID_METABOLISM): −0.4773 | z-score ([1]; KEGG_TH1_AND_TH2_CELL_DIFFERENTIATION): 1.3936 | z-score ([1]; KEGG_TIGHT_JUNCTION): −0.07358 | z-score ([1]; KEGG_TNF_SIGNALING_PATHWAY): 5.6735 | z-score ([1]; KEGG_T_CELL_RECEPTOR_SIGNALING_PATHWAY): 1.5111 | z-score ([1]; KEGG_WNT_SIGNALING_PATHWAY): −1.5459 | z-score ([1]; WIKI_ACTIVATION_OF_MATRIX_METALLOPROTEINASES): 0.8244 | Genes up and downregulation in pathway [1, 4]: − | z-score [1, 4]: −5.9295 | z-score ([1]; WIKI_COLLAGEN_BIOSYNTHESIS_AND_MODIFYING_ENZYMES): 4.7943 | regulation of collagen synthesis and extracellular matrix pathways (Z-Score heatmap, in words) ([1]; WIKI_COLLAGEN_BIOSYNTHESIS_AND_MODIFYING_ENZYMES, WIKI_EXTRACELLULAR_MATRIX_ORGANIZATION, WIKI_DEGRADATION_OF_THE_EXTRACELLULAR_MATRIX, WIKI_COLLAGEN_DEGRADATION, WIKI_ASSEMBLY_OF_COLLAGEN_FIBRILS_AND_OTHER_MULTIMERIC_STRUCTURES): very much down regulated | z-score ([1]; WIKI_COLLAGEN_DEGRADATION): −5.0219 | z-score ([1]; WIKI_DEGRADATION_OF_THE_EXTRACELLULAR_MATRIX): 4.6457 | Genes up and downregulation in pathway ([1]; WIKI_ELASTIC_FIBRE_FORMATION): − | z-score ([1]; WIKI_ELASTIC_FIBRE_FORMATION): −2.0745 | z-score ([1]; WIKI_ELECTRON_TRANSPORT_CHAIN_IN_MITOCHONDRIA): 2.7536 | z-score ([1]; WIKI_EXTRACELLULAR_MATRIX_ORGANIZATION): 4.5653 | Genes up and downregulation in pathway ([1]; WIKI_KERATINIZATION): + | z-score ([1]; WIKI_KERATINIZATION): 6.3972 | z-score ([1]; WIKI_NRF2_PATHWAY): 1.7004 | z-score ([1]; WIKI_RESPIRATORY_ELECTRON_TRANSPORT_ATP_SYNTHESIS): 2.2177 | z-score ([1]; WIKI_SPHINGOLIPID_METABOLISM): −0.9459 | Up-Regulated Genes (number) ([1]; 19254 genes evaluated): 196 | Up-Regulated Genes (number) ([1]; second column of Table 6): 503
